Reference: US12415816B2, “Benzothiazole derivatives and 7-aza-benzothiazole derivatives as janus kinase 2 inhibitors and uses thereof” (Dana-Farber Cancer Institute, Inc., priority 2018, dated 2025)

What was measured:
ABL1(Q252H) = ABL1(Q252H) (Homo sapiens (Human), UniProt P00519, Q252H); test: KINOMEscan kinase selectivity profiling; format: binding; conditions: read-out: Ambit KINOMEscan of compound I-5 at 10 μM (percent control %)
CDKL3 = CDKL3 (Homo sapiens (Human), UniProt Q8IVW4); test: KINOMEscan kinase selectivity profiling; format: binding; conditions: read-out: Ambit KINOMEscan of compound I-5 at 10 μM (percent control %)
ABL2 = ABL2 (Homo sapiens (Human), UniProt P42684); test: KINOMEscan kinase selectivity profiling; format: binding; conditions: read-out: Ambit KINOMEscan of compound I-5 at 10 μM (percent control %)
KIT(V559D) = KIT(V559D) (Homo sapiens (Human), UniProt P10721, V559D); test: KINOMEscan kinase selectivity profiling; format: binding; conditions: read-out: Ambit KINOMEscan of compound I-5 at 10 μM (percent control %)
MAP4K2 = MAP4K2 (Homo sapiens (Human), UniProt Q12851); test: KINOMEscan kinase selectivity profiling; format: binding; conditions: read-out: Ambit KINOMEscan of compound I-5 at 10 μM (percent control %)
MERTK = MERTK (Homo sapiens (Human), UniProt Q12866); test: KINOMEscan kinase selectivity profiling; format: binding; conditions: read-out: Ambit KINOMEscan of compound I-5 at 10 μM (percent control %)
TRKB = TRKB (Homo sapiens (Human), UniProt Q16620); test: KINOMEscan kinase selectivity profiling; format: binding; conditions: read-out: Ambit KINOMEscan of compound I-5 at 10 μM (percent control %)
TAOK3 = TAOK3 (Homo sapiens (Human), UniProt Q9H2K8); test: KINOMEscan kinase selectivity profiling; format: binding; conditions: read-out: Ambit KINOMEscan of compound I-5 at 10 μM (percent control %)
TIE1 = TIE1 (Homo sapiens (Human), UniProt P35590); test: KINOMEscan kinase selectivity profiling; format: binding; conditions: read-out: Ambit KINOMEscan of compound I-5 at 10 μM (percent control %)
ABL1(T315I) = ABL1(T315I) (Homo sapiens (Human), UniProt P00519, T315I); test: KINOMEscan kinase selectivity profiling; format: binding; conditions: read-out: Ambit KINOMEscan of compound I-5 at 10 μM (percent control %)
PFTAIRE2 = PFTAIRE2 (Homo sapiens (Human), UniProt Q96Q40); test: KINOMEscan kinase selectivity profiling; format: binding; conditions: read-out: Ambit KINOMEscan of compound I-5 at 10 μM (percent control %)
PDGFRB = PDGFRB (Homo sapiens (Human), UniProt P09619); test: KINOMEscan kinase selectivity profiling; format: binding; conditions: read-out: Ambit KINOMEscan of compound I-5 at 10 μM (percent control %)
RET(M918T) = RET(M918T) (Homo sapiens (Human), UniProt P07949, M918T); test: KINOMEscan kinase selectivity profiling; format: binding; conditions: read-out: Ambit KINOMEscan of compound I-5 at 10 μM (percent control %)
RET(V804M) = RET(V804M) (Homo sapiens (Human), UniProt P07949, V804M); test: KINOMEscan kinase selectivity profiling; format: binding; conditions: read-out: Ambit KINOMEscan of compound I-5 at 10 μM (percent control %)
p38-delta = p38-delta (Homo sapiens (Human), UniProt O15264); test: KINOMEscan kinase selectivity profiling; format: binding; conditions: read-out: Ambit KINOMEscan of compound I-5 at 10 μM (percent control %)
EPHB1 = EPHB1 (Homo sapiens (Human), UniProt P54762); test: KINOMEscan kinase selectivity profiling; format: binding; conditions: read-out: Ambit KINOMEscan of compound I-5 at 10 μM (percent control %)
INSRR = INSRR (Homo sapiens (Human), UniProt P14616); test: KINOMEscan kinase selectivity profiling; format: binding; conditions: read-out: Ambit KINOMEscan of compound I-5 at 10 μM (percent control %)
RIPK1 = RIPK1 (Homo sapiens (Human), UniProt Q13546); test: KINOMEscan kinase selectivity profiling; format: binding; conditions: read-out: Ambit KINOMEscan of compound I-5 at 10 μM (percent control %)
TRKC = TRKC (Homo sapiens (Human), UniProt Q16288); test: KINOMEscan kinase selectivity profiling; format: binding; conditions: read-out: Ambit KINOMEscan of compound I-5 at 10 μM (percent control %)
KIT = KIT (Homo sapiens (Human), UniProt P10721); test: KINOMEscan kinase selectivity profiling; format: binding; conditions: read-out: Ambit KINOMEscan of compound I-5 at 10 μM (percent control %)
EPHB4 = EPHB4 (Homo sapiens (Human), UniProt P54760); test: KINOMEscan kinase selectivity profiling; format: binding; conditions: read-out: Ambit KINOMEscan of compound I-5 at 10 μM (percent control %)
EPHA6 = EPHA6 (Homo sapiens (Human), UniProt Q9UF33); test: KINOMEscan kinase selectivity profiling; format: binding; conditions: read-out: Ambit KINOMEscan of compound I-5 at 10 μM (percent control %)
CSF1R = CSF1R (Homo sapiens (Human), UniProt P07333); test: KINOMEscan kinase selectivity profiling; format: binding; conditions: read-out: Ambit KINOMEscan of compound I-5 at 10 μM (percent control %)
EPHB2 = EPHB2 (Homo sapiens (Human), UniProt P29323); test: KINOMEscan kinase selectivity profiling; format: binding; conditions: read-out: Ambit KINOMEscan of compound I-5 at 10 μM (percent control %)
FLT4 = FLT4 (Homo sapiens (Human), UniProt P35916); test: KINOMEscan kinase selectivity profiling; format: binding; conditions: read-out: Ambit KINOMEscan of compound I-5 at 10 μM (percent control %)
PDGFRA = PDGFRA (Homo sapiens (Human), UniProt P16234); test: KINOMEscan kinase selectivity profiling; format: binding; conditions: read-out: Ambit KINOMEscan of compound I-5 at 10 μM (percent control %)
PFTK1 = PFTK1 (Homo sapiens (Human), UniProt O94921); test: KINOMEscan kinase selectivity profiling; format: binding; conditions: read-out: Ambit KINOMEscan of compound I-5 at 10 μM (percent control %)
EPHA4 = EPHA4 (Homo sapiens (Human), UniProt P54764); test: KINOMEscan kinase selectivity profiling; format: binding; conditions: read-out: Ambit KINOMEscan of compound I-5 at 10 μM (percent control %)
SRC = SRC (Homo sapiens (Human), UniProt P12931); test: KINOMEscan kinase selectivity profiling; format: binding; conditions: read-out: Ambit KINOMEscan of compound I-5 at 10 μM (percent control %)
BRAF(V600E) = BRAF(V600E) (Homo sapiens (Human), UniProt P15056, V600E); test: KINOMEscan kinase selectivity profiling; format: binding; conditions: read-out: Ambit KINOMEscan of compound I-5 at 10 μM (percent control %)
TAK1 = TAK1 (Homo sapiens (Human), UniProt O43318); test: KINOMEscan kinase selectivity profiling; format: binding; conditions: read-out: Ambit KINOMEscan of compound I-5 at 10 μM (percent control %)
ITK = ITK (Homo sapiens (Human), UniProt Q08881); test: KINOMEscan kinase selectivity profiling; format: binding; conditions: read-out: Ambit KINOMEscan of compound I-5 at 10 μM (percent control %)
RET = RET (Homo sapiens (Human), UniProt P07949); test: KINOMEscan kinase selectivity profiling; format: binding; conditions: read-out: Ambit KINOMEscan of compound I-5 at 10 μM (percent control %)
CDC2L2 = CDC2L2 (Homo sapiens (Human), UniProt Q9UQ88); test: KINOMEscan kinase selectivity profiling; format: binding; conditions: read-out: Ambit KINOMEscan of compound I-5 at 10 μM (percent control %)
EPHA8 = EPHA8 (Homo sapiens (Human), UniProt P29322); test: KINOMEscan kinase selectivity profiling; format: binding; conditions: read-out: Ambit KINOMEscan of compound I-5 at 10 μM (percent control %)
KIT(L576P) = KIT(L576P) (Homo sapiens (Human), UniProt P10721, L576P); test: KINOMEscan kinase selectivity profiling; format: binding; conditions: read-out: Ambit KINOMEscan of compound I-5 at 10 μM (percent control %)
FGR = FGR (Homo sapiens (Human), UniProt P09769); test: KINOMEscan kinase selectivity profiling; format: binding; conditions: read-out: Ambit KINOMEscan of compound I-5 at 10 μM (percent control %)
RAF1 = RAF1 (Homo sapiens (Human), UniProt P04049); test: KINOMEscan kinase selectivity profiling; format: binding; conditions: read-out: Ambit KINOMEscan of compound I-5 at 10 μM (percent control %)
FES = FES (Homo sapiens (Human), UniProt P07332); test: KINOMEscan kinase selectivity profiling; format: binding; conditions: read-out: Ambit KINOMEscan of compound I-5 at 10 μM (percent control %)
RET(V804L) = RET(V804L) (Homo sapiens (Human), UniProt P07949, V804L); test: KINOMEscan kinase selectivity profiling; format: binding; conditions: read-out: Ambit KINOMEscan of compound I-5 at 10 μM (percent control %)
LYN = LYN (Homo sapiens (Human), UniProt P07948); test: KINOMEscan kinase selectivity profiling; format: binding; conditions: read-out: Ambit KINOMEscan of compound I-5 at 10 μM (percent control %)
CIT = CIT (Homo sapiens (Human), UniProt O14578); test: KINOMEscan kinase selectivity profiling; format: binding; conditions: read-out: Ambit KINOMEscan of compound I-5 at 10 μM (percent control %)
JAK2 = JAK2 (Homo sapiens (Human), UniProt O60674); test: JAK2 Z-Lyte biochemical assay; conditions: commercial JAK2 Z-Lyte assay from Invitrogen
Experimental: The JAK2 Z-Lyte biochemical assay was performed according to manufacturer's instructions (Life Technologies).

HPK1 = HPK1 (Homo sapiens (Human), UniProt Q92918); test: KINOMEscan kinase selectivity profiling; format: binding; conditions: read-out: Ambit KINOMEscan of compound I-5 at 10 μM (percent control %)
TIE2 = TIE2 (Homo sapiens (Human), UniProt Q02763); test: KINOMEscan kinase selectivity profiling; format: binding; conditions: read-out: Ambit KINOMEscan of compound I-5 at 10 μM (percent control %)

Chain of KIT (P10721 26-976): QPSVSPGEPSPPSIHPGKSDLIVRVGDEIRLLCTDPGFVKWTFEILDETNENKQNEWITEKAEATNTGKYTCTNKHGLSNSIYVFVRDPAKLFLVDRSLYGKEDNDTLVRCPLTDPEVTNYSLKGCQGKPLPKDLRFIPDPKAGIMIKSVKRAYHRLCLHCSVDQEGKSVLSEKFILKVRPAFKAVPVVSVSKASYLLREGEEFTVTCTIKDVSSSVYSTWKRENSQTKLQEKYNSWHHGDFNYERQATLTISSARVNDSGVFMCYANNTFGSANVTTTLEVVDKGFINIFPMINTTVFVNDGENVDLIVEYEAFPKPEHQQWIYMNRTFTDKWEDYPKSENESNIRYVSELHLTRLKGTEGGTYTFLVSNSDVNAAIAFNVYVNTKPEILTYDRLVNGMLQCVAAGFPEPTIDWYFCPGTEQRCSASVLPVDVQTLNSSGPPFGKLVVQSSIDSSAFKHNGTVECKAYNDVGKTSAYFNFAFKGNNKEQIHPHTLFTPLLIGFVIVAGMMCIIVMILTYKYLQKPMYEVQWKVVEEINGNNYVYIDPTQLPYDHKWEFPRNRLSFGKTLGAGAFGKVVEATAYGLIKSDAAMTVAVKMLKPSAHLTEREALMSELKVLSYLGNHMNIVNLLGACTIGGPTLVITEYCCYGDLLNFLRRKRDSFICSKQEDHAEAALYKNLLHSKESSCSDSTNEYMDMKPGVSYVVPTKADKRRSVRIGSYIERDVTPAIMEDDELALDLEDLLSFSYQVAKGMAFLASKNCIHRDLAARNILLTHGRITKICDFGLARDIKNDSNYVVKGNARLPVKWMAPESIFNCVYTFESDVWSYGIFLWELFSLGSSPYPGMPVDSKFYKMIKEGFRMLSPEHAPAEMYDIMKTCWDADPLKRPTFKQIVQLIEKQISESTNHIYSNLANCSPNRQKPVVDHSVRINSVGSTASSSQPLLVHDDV
Chain of EPHB2 (P29323 19-1055): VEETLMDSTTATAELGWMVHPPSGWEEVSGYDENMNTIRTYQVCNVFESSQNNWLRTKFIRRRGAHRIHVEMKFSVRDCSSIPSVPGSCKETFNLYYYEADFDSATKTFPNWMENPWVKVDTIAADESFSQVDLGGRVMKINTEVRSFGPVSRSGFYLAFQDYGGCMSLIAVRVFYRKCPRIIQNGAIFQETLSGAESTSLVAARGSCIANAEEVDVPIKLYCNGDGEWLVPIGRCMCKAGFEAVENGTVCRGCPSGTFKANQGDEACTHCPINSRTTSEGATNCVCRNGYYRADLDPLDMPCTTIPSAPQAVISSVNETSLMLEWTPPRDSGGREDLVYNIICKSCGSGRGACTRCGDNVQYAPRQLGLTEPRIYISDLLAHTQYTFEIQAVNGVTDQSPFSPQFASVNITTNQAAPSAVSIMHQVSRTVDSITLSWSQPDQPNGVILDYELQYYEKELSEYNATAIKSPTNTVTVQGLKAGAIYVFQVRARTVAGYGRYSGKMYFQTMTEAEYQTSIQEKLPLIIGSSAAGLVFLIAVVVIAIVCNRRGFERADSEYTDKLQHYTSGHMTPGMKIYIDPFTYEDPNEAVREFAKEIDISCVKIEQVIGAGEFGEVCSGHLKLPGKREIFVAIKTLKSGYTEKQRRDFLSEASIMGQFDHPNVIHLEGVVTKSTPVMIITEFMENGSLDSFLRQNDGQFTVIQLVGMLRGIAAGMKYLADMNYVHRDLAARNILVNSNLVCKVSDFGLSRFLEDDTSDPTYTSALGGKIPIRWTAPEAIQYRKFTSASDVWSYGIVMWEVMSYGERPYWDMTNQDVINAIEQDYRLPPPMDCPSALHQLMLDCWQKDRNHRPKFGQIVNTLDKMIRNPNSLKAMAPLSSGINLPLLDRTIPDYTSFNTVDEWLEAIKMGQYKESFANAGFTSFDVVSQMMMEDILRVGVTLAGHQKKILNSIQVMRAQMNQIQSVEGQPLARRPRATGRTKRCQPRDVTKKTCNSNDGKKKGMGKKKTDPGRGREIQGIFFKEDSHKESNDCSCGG
Chain of INSRR (P14616 27-1297): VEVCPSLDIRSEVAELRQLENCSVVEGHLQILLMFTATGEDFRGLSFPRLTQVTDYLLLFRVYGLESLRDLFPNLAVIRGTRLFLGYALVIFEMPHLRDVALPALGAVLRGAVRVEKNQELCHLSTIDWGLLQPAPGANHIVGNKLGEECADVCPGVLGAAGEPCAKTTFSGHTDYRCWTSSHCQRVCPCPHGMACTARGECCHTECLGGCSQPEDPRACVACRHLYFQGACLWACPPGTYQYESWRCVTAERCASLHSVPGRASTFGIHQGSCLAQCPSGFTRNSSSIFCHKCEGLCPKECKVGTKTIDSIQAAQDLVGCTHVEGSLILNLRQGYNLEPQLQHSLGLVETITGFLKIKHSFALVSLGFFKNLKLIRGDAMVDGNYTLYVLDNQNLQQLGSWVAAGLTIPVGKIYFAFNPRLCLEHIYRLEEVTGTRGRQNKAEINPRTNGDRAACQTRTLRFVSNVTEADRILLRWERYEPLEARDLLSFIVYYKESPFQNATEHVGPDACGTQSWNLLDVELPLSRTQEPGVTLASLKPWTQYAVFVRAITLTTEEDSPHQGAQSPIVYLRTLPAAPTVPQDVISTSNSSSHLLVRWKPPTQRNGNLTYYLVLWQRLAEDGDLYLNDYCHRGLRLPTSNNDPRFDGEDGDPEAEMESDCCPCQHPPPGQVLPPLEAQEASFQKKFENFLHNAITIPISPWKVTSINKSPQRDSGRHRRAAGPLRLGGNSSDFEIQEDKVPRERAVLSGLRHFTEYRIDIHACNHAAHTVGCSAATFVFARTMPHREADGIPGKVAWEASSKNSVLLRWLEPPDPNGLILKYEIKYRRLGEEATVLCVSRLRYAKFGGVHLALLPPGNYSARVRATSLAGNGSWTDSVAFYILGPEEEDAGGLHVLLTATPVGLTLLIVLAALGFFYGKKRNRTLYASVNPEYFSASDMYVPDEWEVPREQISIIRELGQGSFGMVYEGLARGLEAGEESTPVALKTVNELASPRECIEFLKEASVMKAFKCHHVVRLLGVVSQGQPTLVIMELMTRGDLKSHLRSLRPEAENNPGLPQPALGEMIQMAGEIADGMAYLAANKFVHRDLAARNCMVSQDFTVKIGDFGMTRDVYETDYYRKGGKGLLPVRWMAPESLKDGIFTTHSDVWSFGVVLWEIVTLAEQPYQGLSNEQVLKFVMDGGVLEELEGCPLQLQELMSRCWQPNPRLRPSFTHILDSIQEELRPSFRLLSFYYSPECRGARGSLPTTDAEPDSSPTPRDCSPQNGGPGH
Chain of EPHB4 (P54760 16-987): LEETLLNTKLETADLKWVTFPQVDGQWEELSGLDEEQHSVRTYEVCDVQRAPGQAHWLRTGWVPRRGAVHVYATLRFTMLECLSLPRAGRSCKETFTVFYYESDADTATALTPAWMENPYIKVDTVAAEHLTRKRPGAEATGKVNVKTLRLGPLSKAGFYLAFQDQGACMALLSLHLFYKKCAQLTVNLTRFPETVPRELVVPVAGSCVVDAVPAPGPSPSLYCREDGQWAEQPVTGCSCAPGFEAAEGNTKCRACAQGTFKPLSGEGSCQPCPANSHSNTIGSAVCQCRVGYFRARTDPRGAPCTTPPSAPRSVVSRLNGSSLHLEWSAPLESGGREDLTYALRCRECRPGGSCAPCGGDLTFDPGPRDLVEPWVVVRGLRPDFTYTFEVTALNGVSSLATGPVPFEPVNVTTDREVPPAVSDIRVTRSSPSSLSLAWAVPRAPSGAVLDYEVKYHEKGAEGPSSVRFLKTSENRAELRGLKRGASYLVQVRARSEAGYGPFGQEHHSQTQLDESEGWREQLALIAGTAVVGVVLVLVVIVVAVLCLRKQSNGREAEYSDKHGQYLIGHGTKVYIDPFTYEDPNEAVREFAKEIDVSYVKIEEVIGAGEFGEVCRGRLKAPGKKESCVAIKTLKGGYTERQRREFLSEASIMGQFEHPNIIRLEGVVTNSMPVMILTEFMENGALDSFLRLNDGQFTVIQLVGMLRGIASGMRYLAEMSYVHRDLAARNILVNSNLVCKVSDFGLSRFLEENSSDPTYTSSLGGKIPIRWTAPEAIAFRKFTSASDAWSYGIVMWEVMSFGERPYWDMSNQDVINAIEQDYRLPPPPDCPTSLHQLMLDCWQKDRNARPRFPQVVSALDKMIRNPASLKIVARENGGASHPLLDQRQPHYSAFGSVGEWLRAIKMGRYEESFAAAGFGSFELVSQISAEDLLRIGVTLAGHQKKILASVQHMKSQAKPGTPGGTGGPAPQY
Chain of BRAF(V600E) (P15056 whole entry V600E): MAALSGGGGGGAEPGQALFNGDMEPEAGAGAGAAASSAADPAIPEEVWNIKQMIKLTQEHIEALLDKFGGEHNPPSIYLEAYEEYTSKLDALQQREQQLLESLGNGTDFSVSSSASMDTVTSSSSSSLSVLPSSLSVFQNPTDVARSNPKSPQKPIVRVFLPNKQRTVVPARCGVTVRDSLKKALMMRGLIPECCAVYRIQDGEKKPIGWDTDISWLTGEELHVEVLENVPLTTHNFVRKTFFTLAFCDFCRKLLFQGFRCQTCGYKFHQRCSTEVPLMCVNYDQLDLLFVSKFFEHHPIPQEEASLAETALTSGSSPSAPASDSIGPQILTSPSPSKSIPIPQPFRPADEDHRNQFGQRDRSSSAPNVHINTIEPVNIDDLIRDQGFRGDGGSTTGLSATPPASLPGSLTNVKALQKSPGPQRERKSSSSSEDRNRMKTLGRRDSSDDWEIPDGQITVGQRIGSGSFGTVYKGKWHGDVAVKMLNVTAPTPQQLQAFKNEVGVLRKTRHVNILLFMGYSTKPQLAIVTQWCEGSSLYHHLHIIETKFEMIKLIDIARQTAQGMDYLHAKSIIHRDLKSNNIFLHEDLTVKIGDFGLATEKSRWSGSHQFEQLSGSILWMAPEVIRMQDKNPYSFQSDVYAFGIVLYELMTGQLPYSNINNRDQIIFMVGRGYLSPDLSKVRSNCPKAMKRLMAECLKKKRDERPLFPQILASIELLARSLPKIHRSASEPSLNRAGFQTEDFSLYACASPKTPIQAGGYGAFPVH
Chain of KIT(V559D) (P10721 26-976 V559D): as the sequence (P10721 26-976) above, with V534D counted along it
Chain of KIT(L576P) (P10721 26-976 L576P): as the sequence (P10721 26-976) above, with L551P counted along it

`CCN1CCN(Cc2cc(NC(=O)c3ccc(C)c(-c4ccc5nc(NC(=O)C6CC6)sc5n4)c3)cc(C(F)(F)F)c2)CC1` [Compound I-5] gave a remaining binding at 10 µM (ABL1(Q252H)) of 0%, a remaining binding at 10 µM (CDKL3) of 0% and a remaining binding at 10 µM (ABL2) of 0%. For the same compound, the remaining binding at 10 µM (KIT(V559D)) was 0%, the remaining binding at 10 µM (MAP4K2) was 0% and the remaining binding at 10 µM (MERTK) was 0%. It also gave a remaining binding at 10 µM (TRKB) of 0%, a remaining binding at 10 µM (TAOK3) of 0% and a remaining binding at 10 µM (TIE1) of 0%. For the same compound, the remaining binding at 10 µM (ABL1(T315I)) was 0%, the remaining binding at 10 µM (PFTAIRE2) was 0% and the remaining binding at 10 µM (PDGFRB) was 0%. For the same compound, the remaining binding at 10 µM (RET(M918T)) was 0%, the remaining binding at 10 µM (RET(V804M)) was 0% and the remaining binding at 10 µM (p38-delta) was 0%. It also gave a remaining binding at 10 µM (EPHB1) of 0%, a remaining binding at 10 µM (INSRR) of 0% and a remaining binding at 10 µM (RIPK1) of 0%. For the same compound, the remaining binding at 10 µM (TRKC) was 0%, the remaining binding at 10 µM (KIT) was 0% and the remaining binding at 10 µM (EPHB4) was 0%. For the same compound, the remaining binding at 10 µM (EPHA6) was 0%, the remaining binding at 10 µM (CSF1R) was 0% and the remaining binding at 10 µM (EPHB2) was 0%. It also gave a remaining binding at 10 µM (FLT4) of 0%, a remaining binding at 10 µM (PDGFRA) of 0% and a remaining binding at 10 µM (PFTK1) of 0%. For the same compound, the remaining binding at 10 µM (EPHA4) was 0%, the remaining binding at 10 µM (SRC) was 0% and the remaining binding at 10 µM (BRAF(V600E)) was 0%. It also gave a remaining binding at 10 µM (TAK1) of 0%, a remaining binding at 10 µM (ITK) of 0% and a remaining binding at 10 µM (RET) of 0%. It also gave a remaining binding at 10 µM (CDC2L2) of 0%, a remaining binding at 10 µM (EPHA8) of 0% and a remaining binding at 10 µM (KIT(L576P)) of 0%. The remaining binding at 10 µM (FGR) was 0%, the remaining binding at 10 µM (RAF1) was 0% and the remaining binding at 10 µM (FES) was 0%. The remaining binding at 10 µM (RET(V804L)) was 0%, the remaining binding at 10 µM (LYN) was 0% and the remaining binding at 10 µM (CIT) was 0%. For the same compound, the IC50 (JAK2) was 660 nM, the remaining binding at 10 µM (HPK1) was 0% and the remaining binding at 10 µM (TIE2) was 0%.
